Experimental data: patent US5741811A, “Polythiophene anti-tumor agents” (Purdue Research Foundation, priority 1996, dated 1998)

Key:
Test in all cases: NCI human tumor cell line panel growth inhibition
Format in all cases: cell-based
[1] = system: IGROV-1 ovarian cancer cells; conditions: for GI50: Homo sapiens, read-out: Log10 GI50 (converted)
[2] = system: RXF-631 renal cancer cells; conditions: Homo sapiens, read-out: Log10 GI50 (converted)
TK-10 renal cancer cells = conditions: for GI50: Homo sapiens, read-out: Log10 GI50 (converted)
UACC-257 melanoma cells = conditions: for GI50: Homo sapiens, read-out: Log10 GI50 (converted)
XP-498 CNS cancer cells = conditions: read-out: Log10 GI50 (converted)
Description: (§1) The first screen measures the cytotoxicity against a panel of sixty different human tumor cell lines. This assay provides data regarding the general cytotoxicity of an individual compound.
(§2) The length of a bar is indicative of differential cytotoxicity against a specific type of tumor cells or tumor panels.
(§3) The antitumor cytotoxicity of the thiophene compounds tested in the first two in vitro assays was measured by a microculture assay using either 3-(4,5-dimethylthiazol-2-yl)-2,5-diphenyltetrazolium bromide (MTT) or sulforhodamine B (SRB). [M. R. Boyd in "Principles and Practices of Oncology," V. T. DeVita, Jr., S. Hellman and S. A. Rosenberg (Eds.), Vol. 3, PPO Updates, Number 10, 1989.] This assay has an advantage over in vivo assay in that results are obtained within a week as opposed to several months. The assay was carried out in 96-well microtiter plates. The MTT assay is based on the production of a dark blue formazan product by dehydrogenase in the mitochondria of live tumor cells after exposure to drug for 6 days [M. C. Alley, D. A. Scudiero, A. Monks, M. L. Hursey, M. J. Czerwinski, D. L. Fine, B. J. Abbott, J. G. Mayo, R. H. Shoemaker and M. R. Boyd, Cancer Res., 48, 589, 1988.] Thus, only live cells are stained and can be measured at 570 nm. The SRB assay is based on the binding of the anionic group to the basic amino acid residues of cellular proteins after exposure of tumor cells to drug for 2 days [P. Skehan, R. Storeng, D. Scudiero, A. Monks, J. McMahon, D. Vistica, J. T. Warren, H. Bohesch, S. Kenney and M. R. Boyd, J. Nat. Cancer Inst., 82, 1107, 1990.] Thus, the total protein (viability) can be measured at 564 nm.

[3] = system: LXPL-529 lung cancer cells; conditions: for GI50: Homo sapiens, read-out: Log10 GI50 (converted)
[4] = system: CAKI-1 renal cancer cells; conditions: CAKI-1, renal cancer; for GI50: Homo sapiens, read-out: Log10 GI50 (converted)
[5] = system: NCI-H226 lung cancer cells; conditions: for GI50: Homo sapiens, read-out: Log10 GI50 (converted)
ACHN renal cancer cells = conditions: read-out: Log10 GI50 (converted)
[6] = system: NCI-H522 lung cancer cells; conditions: read-out: Log10 GI50 (converted)
SK-MEL-28 melanoma cells = conditions: read-out: Log10 GI50 (converted)
Text: (§4) The cytotoxic activity of the present polythiophene compounds have been measured utilizing three different assays or screens. The first screen measures the cytotoxicity against a panel of sixty different human tumor cell lines. This assay provides data regarding the general cytotoxicity of an individual compound. In particular this type of assay is useful in identifying compounds which have enhanced cytotoxic activity against slow growing tumors as compared to faster growing tumor cells such as leukemia tumor cell lines. The identification of such compounds is critical since previously identified antitumor agents have low cytotoxic activity against slower growing tumors. […] The specificity of a cytotoxic compound for tumor cell lines relative to normal cells is an important characteristic of an effective antitumor agent.
as §2, §3

[7] = system: OVCAR-4 ovarian cancer cells
Text: as §4, §2, §3

SNB-75 CNS cancer cells = conditions: Homo sapiens, read-out: Log10 GI50 (converted)
[8] = system: NCI-H322M lung cancer cells
[9] = system: KM20L2 colon cancer cells
A-498 renal cancer cells = system: A-498 renal cancer cells
[10] = system: NCI-H460 lung cancer cells
SK-MEL-2 melanoma cells = conditions: read-out: Log10 GI50 (converted)
M-14 melanoma cells = conditions: M14, read-out: Log10 GI50 (converted)
SF-268 CNS cancer cells = conditions: read-out: Log10 GI50 (converted)
HT29 colon cancer cells = system: HT29 colon cancer cells
UO-31 renal cancer cells = conditions: read-out: Log10 GI50 (converted)
SN12C renal cancer cells = conditions: read-out: Log10 GI50 (converted)
[11] = system: A549/ATCC lung cancer cells
EKVX lung cancer cells = conditions: read-out: Log10 GI50 (converted)
[12] = system: SK-OV-3 ovarian cancer cells
[13] = system: COLO-205 colon cancer cells; conditions: COLO-205, colon cancer
[14] = system: OVCAR-8 ovarian cancer cells
Description: as §1, §2, §3

[15] = system: SW-620 colon cancer cells
Description: as §1, §2, §3

SF-295 CNS cancer cells = conditions: read-out: Log10 GI50 (converted)
MALME-3M melanoma cells = conditions: read-out: Log10 GI50 (converted)
[16] = system: HCT-15 colon cancer cells
UACC-62 melanoma cells = system: UACC-62 melanoma cells
[17] = system: NCI-H23 lung cancer cells; conditions: read-out: Log10 GI50 (converted)
[18] = system: RXF-393 renal cancer cells
786-0 renal cancer cells = conditions: read-out: Log10 GI50 (converted)
[19] = system: OVCAR-3 ovarian cancer cells; conditions: OVCAR-3, ovarian cancer
[20] = system: HCT-116 colon cancer cells
DLD-1 colon cancer cells = system: DLD-1 colon cancer cells
[21] = system: HCC-2998 colon cancer cells
[22] = system: OVCAR-5 ovarian cancer cells
HOP-62 lung cancer cells = system: HOP-62 lung cancer cells
KM12 colon cancer cells = system: KM12 colon cancer cells
Text: as §4, §2, §3

HOP-92 lung cancer cells = system: HOP-92 lung cancer cells
Text: as §4, §2, §3

SNB-19 CNS cancer cells = system: SNB-19 CNS cancer cells
HOP-18 lung cancer cells = system: HOP-18 lung cancer cells
[23] = Homo sapiens, read-out: Log10 GI50 (converted)

For `OCc1ccc(-c2ccc(-c3ccc(-c4cccs4)s3)s2)s1`, the GI50 [1] was 1.12 µM, the GI50 [2] was 11 µM and the GI50 (TK-10 renal cancer cells) was 0.891 µM. The GI50 (UACC-257 melanoma cells) was 10.7 µM, the GI50 (XP-498 CNS cancer cells) was 11 µM and the GI50 [3] was 1.05 µM. It also gave a GI50 [4] of 0.617 µM and a GI50 [5] of 5.89 µM.
Compound `O=Cc1ccc(-c2ccc(-c3cccs3)s2)s1` [drawing 32] has a GI50 (ACHN renal cancer cells) of 51.3 µM, a GI50 [6] of 32.4 µM and a GI50 (SK-MEL-28 melanoma cells) of 89.1 µM. The GI50 [7, 23] was 30.9 µM, the GI50 [1] was 0.0603 µM and the GI50 (SNB-75 CNS cancer cells) was 31.6 µM. The GI50 [8, 23] was 42.7 µM, the GI50 ([9]; Homo sapiens, KM-20L2, read-out: Log10 GI50 (converted)) was 0.49 µM and the GI50 (A-498 renal cancer cells; Homo sapiens, A498, read-out: Log10 GI50 (converted)) was 0.0437 µM. It also gave a GI50 [10, 23] of 13.8 µM, a GI50 (SK-MEL-2 melanoma cells) of 30.9 µM and a GI50 (M-14 melanoma cells) of 63.1 µM. For the same compound, the GI50 (SF-268 CNS cancer cells) was 87.1 µM, the GI50 (HT29 colon cancer cells; Homo sapiens, HT-29, read-out: Log10 GI50 (converted)) was 24.5 µM and the GI50 (UO-31 renal cancer cells) was 41.7 µM. For the same compound, the GI50 (SN12C renal cancer cells) was 47.9 µM, the GI50 [11, 23] was 32.4 µM and the GI50 (TK-10 renal cancer cells) was 0.525 µM. The GI50 (EKVX lung cancer cells) was 55 µM, the GI50 [12, 23] was 87.1 µM and the GI50 (UACC-257 melanoma cells) was 0.0468 µM. It also gave a GI50 [13, 23] of 5.37 µM, a GI50 [14, 23] of 53.7 µM and a GI50 [15, 23] of 0.537 µM. The GI50 [3] was < 0.01 µM, the GI50 (SF-295 CNS cancer cells) was 69.2 µM and the GI50 (MALME-3M melanoma cells) was 79.4 µM. The GI50 [16, 23] was 24 µM, the GI50 [4] was 0.0138 µM and the GI50 (UACC-62 melanoma cells; [23]) was 0.01 µM. It also gave a GI50 [17] of 55 µM, a GI50 [18, 23] of 16.6 µM and a GI50 (786-0 renal cancer cells) of 43.7 µM. For the same compound, the GI50 [5] was 0.0245 µM, the GI50 [19, 23] was 0.0302 µM and the GI50 [20, 23] was 0.0631 µM. For the same compound, the GI50 (DLD-1 colon cancer cells; [23]) was 7.94 µM, the GI50 [21, 23] was 17.8 µM and the GI50 [22, 23] was 0.138 µM.
In the case of `OCc1ccc(-c2ccc(CO)s2)s1` [drawing 33], the “Log10 GI50” value (HOP-62 lung cancer cells) is reported as -5.52 M, the “Log10 GI50” value [7] is reported as -4.46 M and the “Log10 GI50” value (KM12 colon cancer cells) is reported as -4.35 M. The “Log10 GI50” value (HOP-92 lung cancer cells) was -4.09 M, the “Log10 GI50” value [1] was -6.57 M and the “Log10 GI50” value (SNB-19 CNS cancer cells) was -4.72 M. For the same compound, the “Log10 GI50” value [8] was -5.77 M, the “Log10 GI50” value [9] was -6.15 M and the “Log10 GI50” value (A-498 renal cancer cells) was -7.71 M. For the same compound, the “Log10 GI50” value [10] was -6.29 M, the “Log10 GI50” value (HOP-18 lung cancer cells) was -5.51 M and the “Log10 GI50” value (HT29 colon cancer cells) was -5.04 M. The “Log10 GI50” value [11] was -5.91 M, the “Log10 GI50” value (TK-10 renal cancer cells) was -6.29 M and the “Log10 GI50” value [12] was -5.80 M. For the same compound, the “Log10 GI50” value (UACC-257 melanoma cells) was -6.00 M, the “Log10 GI50” value [13] was -6.22 M and the “Log10 GI50” value [14] was -5.23 M. For the same compound, the “Log10 GI50” value [15] was -5.04 M, the “Log10 GI50” value [3] was -6.33 M and the “Log10 GI50” value [16] was -4.19 M. For the same compound, the “Log10 GI50” value [4] was -6.63 M, the “Log10 GI50” value (UACC-62 melanoma cells) was -6.36 M and the “Log10 GI50” value [18] was -7.05 M. The “Log10 GI50” value [5] was -7.60 M, the “Log10 GI50” value [19] was -5.70 M and the “Log10 GI50” value [20] was -5.27 M. The “Log10 GI50” value (DLD-1 colon cancer cells) was -4.74 M, the “Log10 GI50” value [21] was -6.40 M and the “Log10 GI50” value [22] was -6.06 M.
